Drawing on ChEMBL document CHEMBL1201862, “PubChem BioAssay data set” (2004), this text covers EC50, IC50 and AC50 for 13 compounds.

For experiment [1], the target named is T1, Heat shock factor protein 1 (Mus musculus, UniProt P38532).
T1 sequence (P38532 whole entry): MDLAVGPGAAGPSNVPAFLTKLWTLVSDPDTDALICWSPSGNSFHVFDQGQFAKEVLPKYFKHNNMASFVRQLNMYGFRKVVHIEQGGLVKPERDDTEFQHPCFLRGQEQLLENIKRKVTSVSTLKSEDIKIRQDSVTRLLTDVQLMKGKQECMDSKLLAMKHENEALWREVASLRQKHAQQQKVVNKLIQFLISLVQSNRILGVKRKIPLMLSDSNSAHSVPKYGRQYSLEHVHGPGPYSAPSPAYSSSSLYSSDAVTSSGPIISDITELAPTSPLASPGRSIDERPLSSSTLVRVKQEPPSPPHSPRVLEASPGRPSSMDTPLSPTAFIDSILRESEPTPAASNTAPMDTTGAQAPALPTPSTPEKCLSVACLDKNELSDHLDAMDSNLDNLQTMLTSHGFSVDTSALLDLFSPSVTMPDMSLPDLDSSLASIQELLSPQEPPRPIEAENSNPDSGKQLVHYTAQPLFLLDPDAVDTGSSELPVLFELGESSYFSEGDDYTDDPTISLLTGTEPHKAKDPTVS
The experiment is described as follows: inhibition of MG132-induced HSE-luciferase signal, confirmation, cell-based, NIH3T3, luminescence, dose retest (AID 2382).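 Further: NIH3T3 fibroblasts with HSF1-driven luciferase reporter stressed by proteasome inhibitor MG132; luminescence from HSF1-driven luciferase expression after 8 hours of MG132 stress.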 The experiment is classed as functional.

In experiment [2] the test system is HEK293. The experiment is described as follows: cells. As to conditions: Homo sapiens. In kind it is functional, cell-based.
In experiment [3] the target is T2, Nuclear receptor subfamily 0 group B member 1 (Homo sapiens, UniProt P51843).
T2 sequence (P51843 whole entry): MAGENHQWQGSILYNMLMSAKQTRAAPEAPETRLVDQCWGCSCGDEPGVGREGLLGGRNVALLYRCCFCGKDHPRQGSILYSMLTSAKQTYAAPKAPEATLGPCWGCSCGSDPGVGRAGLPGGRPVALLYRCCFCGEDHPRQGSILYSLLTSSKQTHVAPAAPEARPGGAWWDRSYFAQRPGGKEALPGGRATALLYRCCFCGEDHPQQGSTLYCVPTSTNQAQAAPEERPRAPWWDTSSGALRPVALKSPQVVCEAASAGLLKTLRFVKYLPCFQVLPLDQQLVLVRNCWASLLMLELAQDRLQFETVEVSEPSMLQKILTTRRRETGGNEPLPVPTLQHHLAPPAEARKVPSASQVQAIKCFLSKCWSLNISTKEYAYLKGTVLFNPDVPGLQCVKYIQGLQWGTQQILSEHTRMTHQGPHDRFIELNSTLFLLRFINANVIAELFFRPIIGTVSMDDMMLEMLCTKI
The experiment can be described thus: Luminescence-based cell-based high throughput dose response assay for inhibitors of the orphan nuclear receptor subfamily 0, group B, member 1 (DAX1; NR0B1). [Related pubchem assays (depositor defined):AID504766, AID504790]. The experiment is classed as functional.

Experiment [4] is described as follows: P. falciparum 3D7-ScDHODH growth inhibitors, dose response, SYBR Green, dry powder samples (AID 1159570).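 Further: parasite growth measured after 72 hours of compound exposure.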 In kind it is functional, cell-based.
Experiment [5] is described as follows: HepG2 cell cytotoxicity, dose response, cytotoxicity control, plate reader, dry powder samples (AID 1159569).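 Further: inhibitor potency with signal falling toward the positive control level.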 In kind it is functional, cell-based.
Experiment [6] is described as follows: P. falciparum Dd2 growth inhibitors, dose response, SYBR Green, cherry-picked samples (AID 1159567). The experiment is classed as functional, cell-based.
The nature of experiment [7]: P. falciparum Dd2 growth inhibitors, dose response, SYBR Green, dry powder samples (AID 1159566).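 Further: potency for growth inhibition with lower SYBR green DNA signal.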 The experiment is classed as functional, cell-based.
The nature of experiment [8]: P. falciparum ATP4 D1247Y mutant growth inhibitors, dose response, NITD609-resistant line, SYBR Green, dry powder (AID 1159571).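 Further: parasites synchronized at ring stage by sorbitol before testing.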 The experiment is classed as functional, cell-based.
Experiment [9] addresses Major prion protein (Homo sapiens, UniProt P04156). The experiment is classed as functional, cell-based.
Experiment [10] in a line: cells.
The target of experiment [11] is T3, Corticotropin-releasing factor receptor 2/Corticotropin-releasing factor-binding protein (Homo sapiens, UniProt P24387+Q13324).
T3 sequence (Q13324 whole entry): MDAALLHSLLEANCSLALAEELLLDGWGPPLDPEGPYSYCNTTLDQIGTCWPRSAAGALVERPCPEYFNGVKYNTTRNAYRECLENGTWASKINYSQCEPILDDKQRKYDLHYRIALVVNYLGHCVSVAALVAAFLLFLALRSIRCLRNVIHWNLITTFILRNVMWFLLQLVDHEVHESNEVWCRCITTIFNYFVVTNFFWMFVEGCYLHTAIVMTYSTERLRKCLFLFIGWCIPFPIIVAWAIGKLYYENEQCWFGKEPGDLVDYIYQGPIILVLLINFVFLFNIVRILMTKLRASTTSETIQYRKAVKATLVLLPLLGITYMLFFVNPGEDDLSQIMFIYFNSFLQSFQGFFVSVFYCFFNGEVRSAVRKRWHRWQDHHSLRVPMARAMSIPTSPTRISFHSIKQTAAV
T3 sequence (P24387 whole entry): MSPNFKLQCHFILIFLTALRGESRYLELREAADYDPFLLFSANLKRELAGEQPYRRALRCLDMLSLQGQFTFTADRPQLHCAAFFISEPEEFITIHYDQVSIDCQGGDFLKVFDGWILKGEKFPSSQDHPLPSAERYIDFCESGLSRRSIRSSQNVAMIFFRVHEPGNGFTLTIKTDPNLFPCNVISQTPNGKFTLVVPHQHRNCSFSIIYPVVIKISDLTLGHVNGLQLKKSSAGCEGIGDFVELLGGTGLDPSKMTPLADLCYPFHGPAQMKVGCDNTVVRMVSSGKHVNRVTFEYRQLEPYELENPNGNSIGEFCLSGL
The experiment is described as follows: Dose Response confirmation of uHTS hits for small molecule antagonists of the CRF-binding protein and CRF-R2 receptor complex. In kind it is functional. As to conditions: read-out: IC50_Mean.

Experiment [12] has as its target T3, Corticotropin-releasing factor receptor 2/Corticotropin-releasing factor-binding protein. The experiment can be described thus: activators of CRF receptor 2 with binding protein – uHTS hits, confirmation (AID 602473). In kind it is functional. Particulars: read-out: EC50_Mean.
Experiment [13] is described as follows: CRF-BP/CRF-R2 complex antagonists, dose response, cell-based, uHTS hits, 384-well (AID 651639). In kind it is functional, Homo sapiens. As to conditions: read-out: IC50_Mean.
The target in experiment [14] is NAD-dependent protein deacylase sirtuin-5, mitochondrial (Homo sapiens, UniProt Q9NXA8). The experiment can be described thus: SIRT5 desuccinylase inhibitors, dose response, biochemical, fluorescence imaging, cherry-pick, set 5 (AID 720591).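 Further: desuccinylation of succinyl peptide AMC substrate read as fluorescence after trypsin release; potency of inhibitors that lower fluorescence and may act on trypsin instead.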
In experiment [15] the target is Prothrombin (Homo sapiens, UniProt P00734). The experiment is described as follows: Thrombin 1536 HTS Dose Response Confirmation. [Related pubchem assays: 1046 (Thrombin 1536 HTS; hits were confirmed in this assay)]. The experiment is classed as functional.
Experiment [16] concerns the target Paired box protein Pax-8 (Homo sapiens, UniProt Q06710). The experiment is described as follows: inhibitors of PAX8-driven TPO luciferase reporter, dose response, RMG-I cells, cherry-pick (AID 687027).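 Further: luciferase reporter driven by Pax8 target thyroperoxidase promoter measured by SteadyGlo luminescence.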 The experiment is classed as functional, cell-based. (In a reporter assay the amount or activity of a reporter protein is the signal.)
Experiment [17] in a line: A2780 ovarian cancer cell cytotoxicity, dose response, cytotoxicity control, plate reader, dry powder samples (AID 743046). In kind it is functional, cell-based.
Experiment [18] is described as follows: NIH:OVCAR-3 ovarian cancer cell cytotoxicity, dose response, PAX8 inhibitor project, plate reader, dry powder samples (AID 743044). The experiment is classed as functional, cell-based.
A short description of experiment [19]: cytotoxicity in OVCAR8 ovarian cancer cells, dose response, PAX8 project, cell-based, plate reader, dry powder samples (AID 743197). Particulars: OVCAR-8. In kind it is functional.
The target in experiment [20] is T4, Carboxy-terminal domain RNA polymerase II polypeptide A small phosphatase 1 (Homo sapiens, UniProt Q9GZU7).
T4 sequence (Q9GZU7 whole entry): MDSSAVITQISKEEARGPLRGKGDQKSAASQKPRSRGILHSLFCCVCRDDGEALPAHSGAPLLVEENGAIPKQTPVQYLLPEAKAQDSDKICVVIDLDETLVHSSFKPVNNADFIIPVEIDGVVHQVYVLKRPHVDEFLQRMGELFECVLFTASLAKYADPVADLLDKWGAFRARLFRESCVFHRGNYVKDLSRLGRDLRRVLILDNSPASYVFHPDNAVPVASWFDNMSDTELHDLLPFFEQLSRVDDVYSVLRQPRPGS
The experiment can be described thus: inhibitors of CTDSP1, concentration-response testing, biochemical assay, absorbance-based, actives from ultra-high-throughput screening (AID 540297). In kind it is functional.

The target of experiment [21] is T5, Low molecular weight phosphotyrosine protein phosphatase (Homo sapiens, UniProt P24666).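 Further: Dose-response confirmation assay measuring inhibition of LMPTP enzyme activity by fluorescence intensity read-out.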
T5 sequence (P24666 whole entry): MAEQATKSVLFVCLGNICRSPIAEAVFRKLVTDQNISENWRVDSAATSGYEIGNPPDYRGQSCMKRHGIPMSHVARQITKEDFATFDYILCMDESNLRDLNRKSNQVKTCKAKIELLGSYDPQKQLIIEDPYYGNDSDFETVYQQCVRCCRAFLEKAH
The experiment is classed as functional. As to conditions: read-out: IC50_Mean.

Activity calls are given as the source filed them.

Regarding `CC1(C)Cc2c(sc3nc(C4CC4)n(N)c(=O)c23)CO1`, the EC50 in [1] is recorded as > 195 µM (not active). Further, the IC50 in experiment [2] and in experiment [3] was > 67.6 µM (inactive) throughout.
The term AC50 denotes the concentration at which the activity in the assay is half-maximal. Turning to `C[C@@H]1CN([C@H](C)CO)C(=O)c2ccccc2-c2ccccc2CO[C@H]1CN(C)C(=O)Nc1cccc(Cl)c1Cl`, the AC50 was 0.466 µM (active) in experiment [4]; > 100 µM (inactive) in [5]; 1.01 µM (active) in experiment [6]; 0.56 µM (active) in experiment [7]; 1.65 µM (active) in experiment [8].
As to `CCN1C(=O)C2(C(C(=O)c3cc4ccccc4o3)=C(O)C(=O)N2CCCN2CCOCC2)c2ccccc21` (stereo unspecified), the IC50 was 2.08 µM (active) in experiment [9] and > 138 µM (inactive) in experiment [10].
As to `CC(C)Sc1snnc1-c1ccccc1`, the figures for the IC50 in experiment [11] and in [13] were < 0.368 µM (active) and > 20 µM (inactive), respectively. In addition, the EC50 in [12] is > 53 µM (inactive).
On the same counts, the results for `COc1ccc(NC(=O)c2c(F)cccc2F)cc1S(=O)(=O)Nc1ccc(Br)cc1` are 20 µM (active), 18.9 µM (active) and > 53 µM (inactive).
As for `COc1ccc(NC(=O)N2CCCCN3[C@H](CO)[C@H](c4ccc(C#CCC(C)C)cc4)[C@@H]3C2)cc1`, the AC50 in experiment [4] is 0.209 µM (active); in experiment [5], > 100 µM (inactive); in experiment [6], 0.636 µM (active); in [7] it was 0.418 µM (active); in experiment [8], 0.264 µM (active).
Take `CCc1c(C)nc2c(Br)cccc2c1SCCC#N`: the AC50 in experiment [14] was > 30 µM (inactive). The IC50 in experiment [9] is 2.52 µM (active); in [10] it was > 138 µM (inactive).
In the case of `O=C(NCc1ccccc1)C1=C[C@@H](c2coc3ccccc3c2=O)C[C@@H](OCCCCO)O1`, the IC50 in experiment [15] was > 50 µM (not active).
`C[C@@H]1CN([C@@H](C)CO)C(=O)Cc2cc(NC(=O)NC3CCCCC3)ccc2O[C@H]1CN(C)Cc1ccc(-c2ccccc2)cc1`: the concentration at half-maximal activity (AC50) is 8.66 µM (active) in experiment [16], 31.8 µM (active) in experiment [17], 49.5 µM (active) in [18] and 34 µM (active) in experiment [19].
For `O=C(/C=C/c1cccc([N+](=O)[O-])c1)Nc1ccc(NC(=O)c2cccs2)cc1`, the values for the IC50 in experiment [20] and in experiment [21] were 4.11 µM (active) and 27.3 µM (inactive), respectively.
On to `C#CCOC(=O)C[N+](C)(C)CC#Cc1ccccc1`, for which the IC50 in experiment [2] and in [3] was > 67.6 µM (inactive) throughout.
In the case of `Cc1cc(NC(=O)CSc2nc(O)c(C#N)c(-c3ccccc3)n2)no1`, the IC50 in [9] is 7.14 µM (active); in experiment [10], > 138 µM (inactive).
Turning to `CCOC(=O)c1c(C)[nH]c(C)c1C(=O)COC(=O)c1ccccc1O`, the AC50 in [14] was 20 µM (active).
